Experiment [1] has as its target Protein mono-ADP-ribosyltransferase PARP4 (Homo sapiens) (UniProt Q9UKK3). Put plainly: Inhibition of human vPARP catalytic domain expressed in Escherichia coli up to 500 nM.
Experiment [2] has as its target Poly [ADP-ribose] polymerase 1 (Homo sapiens, UniProt P09874).
Description: Inhibition of PARP1 in human HeLa cells by microplate scintillation counting
Experiment [3] concerns the target T1, Protein mono-ADP-ribosyltransferase PARP3 (Homo sapiens) (UniProt Q9Y6F1).
T1 sequence (whole entry): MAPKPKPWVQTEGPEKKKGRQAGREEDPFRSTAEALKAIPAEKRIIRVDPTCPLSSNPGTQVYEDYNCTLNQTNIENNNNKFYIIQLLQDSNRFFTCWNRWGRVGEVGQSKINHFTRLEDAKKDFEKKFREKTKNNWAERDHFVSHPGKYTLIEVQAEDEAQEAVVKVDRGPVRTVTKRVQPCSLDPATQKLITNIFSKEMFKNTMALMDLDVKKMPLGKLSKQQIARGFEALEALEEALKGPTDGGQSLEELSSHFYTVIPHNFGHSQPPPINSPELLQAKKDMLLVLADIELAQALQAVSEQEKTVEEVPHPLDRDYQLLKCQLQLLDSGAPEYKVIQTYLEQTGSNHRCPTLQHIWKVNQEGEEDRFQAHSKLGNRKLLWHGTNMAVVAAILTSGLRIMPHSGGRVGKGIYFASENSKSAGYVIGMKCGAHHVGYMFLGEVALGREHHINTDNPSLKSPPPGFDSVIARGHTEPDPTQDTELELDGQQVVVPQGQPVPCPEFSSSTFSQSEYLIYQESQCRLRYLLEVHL
Put plainly: Inhibition of human PARP3 up to 500 nM.

Experiment [4] addresses T2, Poly [ADP-ribose] polymerase tankyrase-1 (Homo sapiens) (UniProt O95271).
T2 sequence (whole entry): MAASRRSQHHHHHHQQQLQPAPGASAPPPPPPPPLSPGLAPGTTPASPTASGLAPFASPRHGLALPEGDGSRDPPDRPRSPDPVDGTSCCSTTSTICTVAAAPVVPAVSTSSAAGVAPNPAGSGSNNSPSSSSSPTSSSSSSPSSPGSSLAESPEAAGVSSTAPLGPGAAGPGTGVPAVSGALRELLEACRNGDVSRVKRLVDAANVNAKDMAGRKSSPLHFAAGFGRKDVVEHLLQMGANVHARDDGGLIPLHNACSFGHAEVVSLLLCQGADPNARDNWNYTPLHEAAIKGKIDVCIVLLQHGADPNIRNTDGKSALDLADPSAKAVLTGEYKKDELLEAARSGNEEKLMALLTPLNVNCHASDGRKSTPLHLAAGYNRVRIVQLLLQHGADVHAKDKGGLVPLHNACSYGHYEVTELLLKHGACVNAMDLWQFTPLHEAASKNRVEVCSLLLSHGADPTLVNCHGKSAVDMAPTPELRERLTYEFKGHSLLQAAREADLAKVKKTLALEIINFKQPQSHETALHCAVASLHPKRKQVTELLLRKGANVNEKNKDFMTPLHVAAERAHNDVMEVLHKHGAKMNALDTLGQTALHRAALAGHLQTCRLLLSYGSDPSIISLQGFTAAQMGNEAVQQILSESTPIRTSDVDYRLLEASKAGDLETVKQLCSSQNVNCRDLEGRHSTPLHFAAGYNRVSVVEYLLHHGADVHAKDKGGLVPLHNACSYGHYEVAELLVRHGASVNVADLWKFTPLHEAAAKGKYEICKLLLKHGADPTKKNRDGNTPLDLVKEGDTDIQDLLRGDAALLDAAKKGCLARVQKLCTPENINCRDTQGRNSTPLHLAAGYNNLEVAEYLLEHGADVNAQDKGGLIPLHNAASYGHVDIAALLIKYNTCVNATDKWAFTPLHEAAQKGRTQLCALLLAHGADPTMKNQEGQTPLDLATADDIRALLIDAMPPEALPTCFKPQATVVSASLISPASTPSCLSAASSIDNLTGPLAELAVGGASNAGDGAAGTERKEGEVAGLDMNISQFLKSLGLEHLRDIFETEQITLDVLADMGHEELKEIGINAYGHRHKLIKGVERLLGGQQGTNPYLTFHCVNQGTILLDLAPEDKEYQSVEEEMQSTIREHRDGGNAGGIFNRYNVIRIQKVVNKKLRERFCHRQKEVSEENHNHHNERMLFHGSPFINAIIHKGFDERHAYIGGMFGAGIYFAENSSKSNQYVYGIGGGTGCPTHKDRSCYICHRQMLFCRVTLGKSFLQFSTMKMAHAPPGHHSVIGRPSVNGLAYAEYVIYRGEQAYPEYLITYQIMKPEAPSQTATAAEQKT
Put plainly: Inhibition of human tankyrase 1 catalytic domain expressed in Escherichia coli up to 500 nM.

The target in experiment [5] is Poly [ADP-ribose] polymerase 2 (Homo sapiens, UniProt Q9UGN5). The experiment can be described thus: Inhibition of human PARP2 expressed in baculovirus system.
Chain of Poly [ADP-ribose] polymerase 2 (Q9UGN5 whole entry): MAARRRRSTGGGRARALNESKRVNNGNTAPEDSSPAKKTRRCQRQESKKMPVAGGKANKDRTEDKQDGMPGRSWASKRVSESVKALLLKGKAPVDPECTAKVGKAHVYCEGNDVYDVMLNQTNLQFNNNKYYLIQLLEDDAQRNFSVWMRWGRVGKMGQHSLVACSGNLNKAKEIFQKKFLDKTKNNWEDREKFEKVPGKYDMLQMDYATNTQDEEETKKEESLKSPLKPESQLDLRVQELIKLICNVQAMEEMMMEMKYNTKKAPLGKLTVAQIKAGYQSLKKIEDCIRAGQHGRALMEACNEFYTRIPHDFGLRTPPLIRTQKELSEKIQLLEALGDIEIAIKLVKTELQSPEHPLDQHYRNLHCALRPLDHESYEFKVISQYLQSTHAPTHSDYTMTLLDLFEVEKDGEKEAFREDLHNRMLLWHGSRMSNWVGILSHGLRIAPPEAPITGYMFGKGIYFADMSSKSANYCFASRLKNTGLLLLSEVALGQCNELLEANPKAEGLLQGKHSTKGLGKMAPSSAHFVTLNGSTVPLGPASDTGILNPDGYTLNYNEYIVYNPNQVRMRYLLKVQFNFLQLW

4 compounds from ChEMBL document CHEMBL1153049, “Identification of aminoethyl pyrrolo dihydroisoquinolinones as novel poly(ADP-ribose) polymerase-1 inhibitors” (Bioorg Med Chem Lett, 2009) can be followed below.

Structures are written as SMILES. pIC50: −log10 of the molar value. The source made the active and inactive calls. The calls are words filed in the database; no cut-off is given here.

Chain of Poly [ADP-ribose] polymerase 1 (P09874 whole entry): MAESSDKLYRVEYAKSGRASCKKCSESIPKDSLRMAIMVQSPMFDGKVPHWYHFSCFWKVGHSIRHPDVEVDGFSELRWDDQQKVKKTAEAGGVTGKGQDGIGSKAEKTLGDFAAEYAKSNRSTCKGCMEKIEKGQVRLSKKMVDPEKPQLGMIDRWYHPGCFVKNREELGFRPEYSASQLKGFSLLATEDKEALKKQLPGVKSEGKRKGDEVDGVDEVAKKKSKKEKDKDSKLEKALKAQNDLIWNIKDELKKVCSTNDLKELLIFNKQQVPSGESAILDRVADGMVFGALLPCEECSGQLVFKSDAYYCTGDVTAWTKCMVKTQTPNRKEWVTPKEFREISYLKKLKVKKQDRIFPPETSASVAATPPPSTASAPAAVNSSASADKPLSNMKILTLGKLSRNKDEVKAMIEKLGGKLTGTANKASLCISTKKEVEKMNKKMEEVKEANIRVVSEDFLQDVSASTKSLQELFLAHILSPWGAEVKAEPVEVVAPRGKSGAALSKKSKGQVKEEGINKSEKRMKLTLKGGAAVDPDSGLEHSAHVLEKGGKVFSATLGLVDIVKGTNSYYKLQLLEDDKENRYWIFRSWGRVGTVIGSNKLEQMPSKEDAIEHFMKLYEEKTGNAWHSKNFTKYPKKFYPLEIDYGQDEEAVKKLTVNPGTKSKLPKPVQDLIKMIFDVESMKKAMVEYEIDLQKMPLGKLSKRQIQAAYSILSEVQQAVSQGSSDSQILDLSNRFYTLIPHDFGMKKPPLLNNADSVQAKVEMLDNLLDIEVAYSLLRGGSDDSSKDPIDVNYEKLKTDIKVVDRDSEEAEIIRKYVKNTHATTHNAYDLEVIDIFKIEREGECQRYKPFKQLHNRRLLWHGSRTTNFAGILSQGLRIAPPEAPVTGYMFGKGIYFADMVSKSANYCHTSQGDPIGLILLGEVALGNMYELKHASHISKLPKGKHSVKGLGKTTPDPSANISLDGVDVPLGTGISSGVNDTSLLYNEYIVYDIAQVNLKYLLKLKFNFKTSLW
Chain of Protein mono-ADP-ribosyltransferase PARP4 (Homo sapiens) (Q9UKK3 whole entry, the tested form may be a part): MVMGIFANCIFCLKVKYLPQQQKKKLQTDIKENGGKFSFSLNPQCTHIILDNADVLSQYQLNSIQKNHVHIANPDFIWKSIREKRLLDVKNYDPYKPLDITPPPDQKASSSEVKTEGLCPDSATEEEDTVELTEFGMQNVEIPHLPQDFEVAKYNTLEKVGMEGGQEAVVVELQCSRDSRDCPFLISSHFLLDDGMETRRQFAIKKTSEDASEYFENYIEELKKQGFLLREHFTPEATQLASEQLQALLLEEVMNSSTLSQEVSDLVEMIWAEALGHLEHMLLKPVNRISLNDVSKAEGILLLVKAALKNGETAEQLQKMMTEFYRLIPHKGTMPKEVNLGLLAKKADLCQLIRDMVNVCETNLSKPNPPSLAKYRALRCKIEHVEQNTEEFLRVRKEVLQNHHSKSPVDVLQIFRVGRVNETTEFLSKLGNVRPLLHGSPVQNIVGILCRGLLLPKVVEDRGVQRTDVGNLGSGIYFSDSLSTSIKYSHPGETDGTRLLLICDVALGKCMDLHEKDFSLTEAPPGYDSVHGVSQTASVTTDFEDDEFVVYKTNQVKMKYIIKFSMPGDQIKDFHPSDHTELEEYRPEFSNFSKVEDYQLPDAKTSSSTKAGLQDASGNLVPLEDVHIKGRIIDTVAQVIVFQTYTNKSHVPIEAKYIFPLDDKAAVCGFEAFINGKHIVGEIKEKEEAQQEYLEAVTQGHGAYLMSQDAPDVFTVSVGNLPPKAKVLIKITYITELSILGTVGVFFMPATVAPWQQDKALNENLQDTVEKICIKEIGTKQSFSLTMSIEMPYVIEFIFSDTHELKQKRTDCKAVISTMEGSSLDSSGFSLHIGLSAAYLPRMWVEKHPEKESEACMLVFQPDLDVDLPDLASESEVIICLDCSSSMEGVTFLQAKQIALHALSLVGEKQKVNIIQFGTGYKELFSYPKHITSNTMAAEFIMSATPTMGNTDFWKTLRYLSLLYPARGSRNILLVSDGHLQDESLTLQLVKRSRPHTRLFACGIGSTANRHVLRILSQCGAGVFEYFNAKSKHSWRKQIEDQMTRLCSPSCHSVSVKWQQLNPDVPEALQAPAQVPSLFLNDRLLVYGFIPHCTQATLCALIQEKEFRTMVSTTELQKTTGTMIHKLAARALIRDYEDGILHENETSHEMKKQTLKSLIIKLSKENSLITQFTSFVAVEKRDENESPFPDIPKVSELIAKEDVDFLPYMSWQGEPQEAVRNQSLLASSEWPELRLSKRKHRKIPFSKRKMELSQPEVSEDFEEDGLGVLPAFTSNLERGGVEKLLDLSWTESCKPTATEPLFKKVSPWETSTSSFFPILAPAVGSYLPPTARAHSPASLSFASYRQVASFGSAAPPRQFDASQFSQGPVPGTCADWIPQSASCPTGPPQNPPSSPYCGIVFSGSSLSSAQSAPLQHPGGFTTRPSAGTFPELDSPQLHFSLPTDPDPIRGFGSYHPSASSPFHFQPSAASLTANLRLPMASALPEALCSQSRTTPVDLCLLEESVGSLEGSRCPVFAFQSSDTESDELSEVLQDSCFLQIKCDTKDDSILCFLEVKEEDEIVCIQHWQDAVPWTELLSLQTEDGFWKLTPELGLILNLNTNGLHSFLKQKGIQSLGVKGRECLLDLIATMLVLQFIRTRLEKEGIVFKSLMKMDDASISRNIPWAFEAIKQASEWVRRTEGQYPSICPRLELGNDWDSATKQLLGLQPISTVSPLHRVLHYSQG

In the case of `O=C1NCCc2c1ccc1[nH]cc(CCNC(=O)N3CCCNCC3)c21`, the inhibition result in experiment [1], in experiment [3] and in experiment [4] was “inactive” throughout. Moreover, the figures for the pIC50 in experiment [2] and in experiment [5] were 7.57 and 7.77, respectively.
Take `O=C1NCCc2c1ccc1[nH]cc(CCNC(=O)N3CCNCC3)c21`: the inhibition entry in experiment [1], in experiment [3] and in experiment [4] was “inactive” throughout. Also, the values for the pIC50 in experiment [2] and in experiment [5] were 7.60 and 7.49, respectively.
As to `Cn1cc(CNCCc2c[nH]c3ccc4c(c23)CCNC4=O)cn1`, in experiment [2], the negative-log IC50 (pIC50) is less than 6.30.
Same read-out and setting: the figure for `O=C1NCCc2c1ccc1[nH]cc(CCNCc3cccc4cccnc34)c21` is less than 6.30.

In general, pIC50 refers to the negative decadic logarithm of the IC50, by convention in mol/L. A lower pIC50 goes with a high IC50.
